Where a name gives a salt, the structure may show the parent alone.

For assay [1], the target named is T1, ΔF508-CFTR (Homo sapiens, UniProt P13569, DEL508-508). Nature of the assay: short-circuit current (Isc) across CFBE41o− monolayers in Ussing chambers. Also on record: expressed in transfected cells; host or cells: CFBE41o- (ΔF508/ΔF508) transduced with ΔF508-CFTR, TranzVector lentivirus, provided by J. P. Clancy. Format: cell-based. The following applies: 10 μM, 24 h. How it is done:
Short-circuit current (Isc) was measured across monolayers in modified Ussing chambers. 1×10^6 CFBE41o^− cells were seeded onto 12-mm fibronectin-coated Snapwell inserts (Corning Incorporated, Life Sciences, New-York, N.Y.) and the apical medium was removed after 24 h. Transepithelial resistance was monitored using an EVOM epithelial voltohmmeter (World Precision Instruments, Sarasota, Fla.) and cells were used when the transepithelial resistance was 300-400 ohms·cm^2. In some experiments, F508del-CFBE41o^− monolayers were incubated at 29° C. or treated with glafenine at 37° C. for 24 h before being mounted in EasyMount chambers and voltage clamped using a VCCMC6 multichannel current-voltage clamp (Physiologic Instruments, San Diego, Calif.). The apical membrane conductance was functionally isolated by permeabilizing the basolateral membrane with 200 μg/ml nystatin and imposing an apical-to-basolateral Cl^− gradient. For these experiments the basolateral bathing solution contained (in mM) 1.2 NaCl, 115 Na-gluconate, 25 NaHCO3, 1.2 MgCl2, 4 CaCl2, 2.4, KH2PO4, 1.24 K2HPO4, 10 glucose (pH 7.4 with NaOH). The CaCl2 concentration was increased to 4 mM to compensate for the chelation of calcium by gluconate. The apical bathing solution contained (in mM) 115 NaCl, 25 NaHCO3, 1.2 MgCl2, 1.2 CaCl2, 2.4 KH2PO4, 1.24 K2HPO4, 10 mannitol (pH 7.4 with NaOH). […]

For assay [2], the target named is T2, ΔF508-CFTR (Mus musculus, UniProt P26361, DEL508-508).
T2 construct: from tissue; host or cells: ileal mucosa of homozygous ΔF508 mice (A11 ex vivo, A12 after gavage); salivary secretion in the living mouse (A13)
The assay can be described thus: salivary secretion assay in ΔF508-CFTR mice. The assay is classed as in vivo. The method, then:
The procedure followed those recently described by Best & Quinton (Best and Quinton, 2005). Homozygous Δ508-CFTR mice (CFTR^tm1 Eur) and wild-type mice of the same strain were 10-12 weeks old and weighed 20-25 g. They were fed once a day by gavage with saline containing glafenine (50 mg/kg) or vehicle alone (0.1% DMSO) for 2 days. The mice were anaesthetized with ketamine and diazepam on the day of the experiment, then pretreated with a subcutaneous injection of 1 mM atropine into the left cheek. Small strips of Whatman filter paper were placed inside the previously injected cheek for ˜4 min to absorb any salivary secretions. A solution containing 100 μM isoprenaline and 1 mM atropine was then injected into the left cheek at the same site to induce secretion at time zero and the filter paper was replaced every minute for 30 minutes. Each piece of filter paper was immediately placed and sealed in a pre-weighed vial and the time of removal was recorded. The rate of salivary secretion per min and total amount were normalized to the mass of the mouse in grams.

Assay [3] deals with T1, ΔF508-CFTR. The assay can be described thus: iodide efflux assay in CFBE41o− airway epithelial cells. Format: cell-based. Also on record: expressed in transfected cells; host or cells: CFBE41o- (ΔF508/ΔF508) transduced with ΔF508-CFTR, TranzVector lentivirus, provided by J. P. Clancy. The following applies: compared with BHK. How it is done:
Experiments were performed by hand or with a robotic liquid handling system (BioRobot 8000, Qiagen, USA) using Qiagen 4.1 software. Cells were cultured in 24-well plates until they reached confluence in order to perform parallel experiments and comparison analysis. After treatment (or not) with a test compound, medium in each well was replaced with 1 ml of iodide loading buffer (in mM: 136 NaI, 3 KNO3, 2 Ca(NO3)2, 11 glucose and 20 Hepes pH 7.4) for 1 hour at 37° C. to permit the I′ to reach equilibrium. […] The loss of intracellular I^− was determined by removing the medium and replacing it with fresh efflux buffer every 1 min for up to 11 min. […] The iodide concentration of each aliquot was determined using an iodide-sensitive electrode (Orion Research Inc., Boston, Mass., USA or Ecomet) and converted to iodide content (i.e. the amount of iodide released during the 1 min interval). […]
Iodide effluxes were performed using a robotic liquid handling system (BioRobot 8000, Qiagen, Valencia, Calif.) and Qiagen 4.1 software. […] Efflux was measured by replacing the medium with 300 μl fresh efflux buffer at 1 min intervals for up to 11 min. […] Iodide concentration was measured in each aliquot (300 μl) using an iodide-sensitive electrode (Orion Research Inc., Boston, Mass.). […]

T1 sequence (P13569 with tags, fused parts or gaps DEL508-508): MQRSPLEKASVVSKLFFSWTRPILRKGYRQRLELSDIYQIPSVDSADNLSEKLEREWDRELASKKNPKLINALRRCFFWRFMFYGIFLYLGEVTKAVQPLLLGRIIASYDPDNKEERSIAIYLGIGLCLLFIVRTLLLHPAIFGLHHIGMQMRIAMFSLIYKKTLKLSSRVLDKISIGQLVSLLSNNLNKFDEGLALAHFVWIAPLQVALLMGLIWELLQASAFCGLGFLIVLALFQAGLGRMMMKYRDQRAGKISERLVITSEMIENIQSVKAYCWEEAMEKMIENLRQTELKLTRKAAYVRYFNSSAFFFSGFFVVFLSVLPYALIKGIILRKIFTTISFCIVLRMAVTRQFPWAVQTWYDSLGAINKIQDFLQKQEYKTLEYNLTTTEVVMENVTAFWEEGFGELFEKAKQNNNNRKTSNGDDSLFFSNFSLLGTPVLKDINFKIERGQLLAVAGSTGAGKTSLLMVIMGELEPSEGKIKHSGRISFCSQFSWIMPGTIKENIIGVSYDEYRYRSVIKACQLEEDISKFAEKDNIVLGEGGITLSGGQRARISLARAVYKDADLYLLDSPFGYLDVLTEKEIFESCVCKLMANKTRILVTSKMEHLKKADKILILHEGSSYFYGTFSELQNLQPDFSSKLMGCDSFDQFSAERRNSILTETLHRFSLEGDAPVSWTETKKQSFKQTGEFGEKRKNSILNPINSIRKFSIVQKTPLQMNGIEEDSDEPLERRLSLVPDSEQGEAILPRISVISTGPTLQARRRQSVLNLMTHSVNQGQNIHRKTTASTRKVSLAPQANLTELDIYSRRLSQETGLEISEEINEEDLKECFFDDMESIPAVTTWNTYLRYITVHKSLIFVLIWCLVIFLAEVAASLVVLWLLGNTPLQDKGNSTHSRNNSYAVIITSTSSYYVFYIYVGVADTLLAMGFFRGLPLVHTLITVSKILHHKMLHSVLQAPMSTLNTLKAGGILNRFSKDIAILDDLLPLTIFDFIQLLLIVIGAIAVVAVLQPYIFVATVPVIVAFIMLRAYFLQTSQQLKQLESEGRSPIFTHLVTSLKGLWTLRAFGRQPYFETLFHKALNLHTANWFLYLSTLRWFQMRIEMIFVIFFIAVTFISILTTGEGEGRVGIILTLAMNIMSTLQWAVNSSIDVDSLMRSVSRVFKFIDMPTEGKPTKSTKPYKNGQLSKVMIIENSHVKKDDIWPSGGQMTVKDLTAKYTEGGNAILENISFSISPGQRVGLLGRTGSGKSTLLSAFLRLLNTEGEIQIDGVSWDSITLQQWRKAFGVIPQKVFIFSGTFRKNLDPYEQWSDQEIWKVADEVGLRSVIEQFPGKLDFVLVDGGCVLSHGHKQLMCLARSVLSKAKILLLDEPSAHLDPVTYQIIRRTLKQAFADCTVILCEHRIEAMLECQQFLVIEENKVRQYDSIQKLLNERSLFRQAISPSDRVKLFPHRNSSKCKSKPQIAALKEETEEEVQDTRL
T2 sequence (P26361 with tags, fused parts or gaps DEL508-508): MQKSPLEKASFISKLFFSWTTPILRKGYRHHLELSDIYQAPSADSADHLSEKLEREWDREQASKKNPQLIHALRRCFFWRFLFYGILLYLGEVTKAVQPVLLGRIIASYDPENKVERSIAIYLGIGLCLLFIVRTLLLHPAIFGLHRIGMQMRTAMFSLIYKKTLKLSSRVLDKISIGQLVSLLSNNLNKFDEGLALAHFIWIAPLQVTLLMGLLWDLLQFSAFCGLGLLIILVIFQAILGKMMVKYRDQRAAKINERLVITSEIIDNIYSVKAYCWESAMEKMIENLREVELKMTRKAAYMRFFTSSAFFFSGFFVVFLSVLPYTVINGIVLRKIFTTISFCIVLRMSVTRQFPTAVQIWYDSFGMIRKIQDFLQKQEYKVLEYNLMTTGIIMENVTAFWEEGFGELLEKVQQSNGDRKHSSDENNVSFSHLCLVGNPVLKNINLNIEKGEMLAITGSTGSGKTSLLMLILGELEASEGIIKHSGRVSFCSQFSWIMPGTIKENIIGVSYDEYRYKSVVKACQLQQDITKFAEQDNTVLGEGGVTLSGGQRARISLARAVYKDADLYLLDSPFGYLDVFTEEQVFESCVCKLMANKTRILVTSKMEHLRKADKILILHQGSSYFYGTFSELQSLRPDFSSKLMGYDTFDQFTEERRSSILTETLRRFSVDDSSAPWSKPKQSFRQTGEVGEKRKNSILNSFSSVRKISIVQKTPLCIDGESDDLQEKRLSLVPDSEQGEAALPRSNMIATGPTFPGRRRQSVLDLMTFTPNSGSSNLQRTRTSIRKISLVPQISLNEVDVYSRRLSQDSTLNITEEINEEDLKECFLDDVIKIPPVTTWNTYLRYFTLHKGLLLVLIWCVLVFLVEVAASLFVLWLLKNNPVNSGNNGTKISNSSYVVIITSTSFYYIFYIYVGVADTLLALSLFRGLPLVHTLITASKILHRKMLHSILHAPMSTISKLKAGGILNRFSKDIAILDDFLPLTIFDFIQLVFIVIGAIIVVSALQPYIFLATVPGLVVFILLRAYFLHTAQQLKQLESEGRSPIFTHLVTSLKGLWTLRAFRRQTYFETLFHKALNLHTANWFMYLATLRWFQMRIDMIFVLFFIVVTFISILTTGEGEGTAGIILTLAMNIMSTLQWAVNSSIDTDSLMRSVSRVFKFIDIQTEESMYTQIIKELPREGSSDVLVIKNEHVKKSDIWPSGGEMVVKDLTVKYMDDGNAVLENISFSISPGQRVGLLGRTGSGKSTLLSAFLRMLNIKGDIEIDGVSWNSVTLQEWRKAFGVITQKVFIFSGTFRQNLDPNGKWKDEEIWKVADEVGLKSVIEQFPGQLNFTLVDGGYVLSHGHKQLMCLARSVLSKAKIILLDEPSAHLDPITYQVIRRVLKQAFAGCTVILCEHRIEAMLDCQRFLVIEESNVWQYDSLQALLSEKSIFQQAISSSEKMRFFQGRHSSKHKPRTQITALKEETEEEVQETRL

For `O=C(OCC(O)CO)c1ccccc1Nc1ccnc2cc(Cl)ccc12` (stereo not shown) [Glafenine hydrochloride, 2-[(7-chloro-4-quinolinyl)amino]benzoic acid 2,3-dihydroxypropyl ester], the “increase of forskolin+genistein-stimulated Isc compared with DMSO controls” value in assay [1] is given as “about 2.5 fold”. In addition, the “restored share of the total salivary response” value in assay [2] (50 mg glafenine per kg) stood at 15%. For the same molecule, the “maximum rate of saliva production relative to WT mice” value in assay [2] (50 mg/kg by gavage, 2 days, isoprenaline with atropine, control CF mice 5%) is given as 15%. The “rescue of iodide efflux” value in assay [3] is “more striking”.

For the origin of these results see US20110009351A1, “SCREENING ASSAY TO IDENTIFY CORRECTORS OF PROTEIN TRAFFICKING DEFECTS” (Traffick Therepeutics Inc., priority 2007, published 2011).
